≈ marks a conversion by molar mass, not a printed value. Read-outs that look alike come from different tables or passages of the source. Where no end group is shown, it is not given here.
Assays:
[1] = tested on: Staphylococcus chromogenes; assay: microbe, parasite or virus in culture; format: cell-based; conditions: for MIC: Staphylococcus chromogenes, read-out: Minimal inhibitory concentration, Staphylococcus chromogenes
Experimental: (§1) All plates were cultivated aerobically.
(§2) Experiments were conducted in triplicate.

[2] = tested on: Glutamicibacter halophytocola; assay: microbe, parasite or virus in culture; format: cell-based
Experimental: as §1, §2

[3] = tested on: Staphylococcus epidermidis; assay: microbe, parasite or virus in culture; format: cell-based
Experimental: as §1, §2

[4] = tested on: Aeromonas hydrophila; assay: microbe, parasite or virus in culture; format: cell-based; conditions: Aeromonas hydrophila; Gram-negative field isolate from milk; BHI broth; WST colourimetric, 37 °C 6 h; triplicate; read-out: Minimal inhibitory concentration, Aeromonas hydrophila
Experimental: as §1, §2

[5] = tested on: Corynebacterium simulans; assay: microbe, parasite or virus in culture; format: cell-based
Experimental: as §1, §2

[6] = tested on: Streptococcus uberis; assay: microbe, parasite or virus in culture; format: cell-based
Experimental: as §1, §2

[7] = tested on: Staphylococcus xylosus; assay: microbe, parasite or virus in culture; format: cell-based; conditions: for MIC: Staphylococcus xylosus, read-out: Minimal inhibitory concentration, Staphylococcus xylosus
Experimental: as §1, §2

[8] = tested on: Staphylococcus haemolyticus; assay: MIC against field isolate from milk with high SCC; format: cell-based; conditions: Staphylococcus haemolyticus, read-out: Minimal inhibitory concentration, Staphylococcus haemolyticus
Experimental: as §1, §2

[9] = tested on: Staphylococcus aureus ATCC 6538; assay: microbe, parasite or virus in culture; format: cell-based
Experimental: (§3) The standard bacterial strains used for antimicrobial activity assays include Staphylococcus aureus ATCC (American Type Culture Collection, Manassas, VA, USA) 6538, Bacillus cereus ATCC 10876, Enterococcus faecalis ATCC 29212, Streptococcus […] 27956, Streptococcus dysgalactiae ATCC 27957, Streptococcus equi subsp. zooepidemicus ATCC 43079, Escherichia coli ATCC 25922, and Pseudomonas aeruginosa ATCC 27853. Most bacterial strains were cultured in LB medium except for E. faecalis and streptococci, which were cultivated in brain heart infusion (BHI) broth (BD Bioscience). […] Experiments were conducted in triplicate.

[10] = tested on: Bacillus cereus ATCC 10876; assay: microbe, parasite or virus in culture; format: cell-based
Experimental: as §3

[11] = tested on: Streptococcus agalactiae ATCC 27956; assay: microbe, parasite or virus in culture; format: cell-based
Experimental: as §3

[12] = tested on: Escherichia coli ATCC 25922; assay: microbe, parasite or virus in culture; format: cell-based; conditions: Escherichia coli, ATCC25922, 8 h, MH broth, WST colourimetric, 1.5 × 10^5 cells/well, 37 °C 6 h + 2 h reagent, A450, triplicate, read-out: Minimal inhibitory concentration, Escherichia coli
Experimental: as §3

[13] = tested on: Streptococcus equi subsp. zooepidemicus ATCC 43079; assay: microbe, parasite or virus in culture; format: cell-based
Experimental: as §3

[14] = tested on: Pseudomonas aeruginosa ATCC 27853; assay: microbe, parasite or virus in culture; format: cell-based
Experimental: as §3

[15] = tested on: Enterococcus faecalis ATCC 29212; assay: microbe, parasite or virus in culture; format: cell-based
Experimental: as §3

[16] = tested on: Streptococcus dysgalactiae ATCC 27957; assay: microbe, parasite or virus in culture; format: cell-based
Experimental: as §3

[17] = tested on: HaCaT cells; assay: Cytotoxicity, WST-1 cell viability; conditions: 24 h, 37 °C, repeated three times
Experimental: (§4) Human keratinocytes (HaCaT) and pig kidney fibroblast cells (PK15, ATCC CCL-33) were cultured in Dulbecco’s modified Eagle’s medium (DMEM; Hyclone™, Logan, UT, USA) and supplemented with 10% foetal bovine serum (FBS; Hyclone™, Logan, UT, USA), 1% penicillin–streptomycin (Hyclone™) at 37 °C, and 5% CO2 up to 80% confluence. Cell substratum adhesion was disrupted using Accutase (Innovative Cell Technologies, San Diego, CA, USA). A total of 4 × 10^4 cells were incubated for 24 h at 37 °C and 5% CO2 in each well of a 96-well plate containing 64 and 160 µg/mL of each peptide.
(§5) A positive control for complete cell lysis was established using Triton-X100 (1%), and untreated cells were used as the negative control. After incubation, the medium was removed from the wells and replaced with 10 µL of colouring solution (Cell Proliferation Reagent WST-1™) and 100 µL of DMEM (Hyclone™), per the manufacturer’s protocol. Each well absorbance was measured at 440 nm (peptide-treated and control) and 650 nm (background). These measurements were recorded as the optical density (OD) using a microplate reader (xMark™ spectrophotometer; Bio-Rad, CA, USA). Cell viability was calculated using the following equation: CellViability(%)=100×(ODpeptide-ODbackground)/(ODnegative-ODbackground)
(§6) All experiments were performed in triplicate.

[18] = tested on: bovine erythrocytes; assay: Haemolytic activity; format: cell-based; conditions: OD 410 nm, repeated three times
Experimental: The experimental procedures were conducted in accordance with the guidelines approved by the Institutional Animal Care and Use Committee (IACUC) of Konkuk University, Seoul, Korea, and bovine blood was collected from a cow at a local farm using a BD Vacutainer® Sodium Heparin (BD Bioscience) to analyse haemolytic activity. Plasma was removed from the whole blood by centrifugation. Erythrocytes were washed thrice with phosphate-buffered saline (PBS, pH 7.4) and resuspended in PBS at a concentration of 2% (v/v). Subsequently, 100 µL of the erythrocyte suspension was added to each well of a 96-well microtiter plate. The plate contained an equal volume of the peptides in PBS with different concentrations of 10, 20, 40, 80, and 160 μg/mL. Triton-X 100 (1%) and PBS were used as positive and negative controls, respectively. Plates were incubated at 37 °C for 1 h. The release of haemoglobin into the supernatant was monitored by measuring the change in OD at 410 nm using a microplate reader (xMark™ spectrophotometer; Bio-Rad). Results from three independent experiments were pooled. Hemolysis was calculated using the formula: HemolyticPercentage(%)=100×(ODpeptide-ODnegative)/(ODpositive-ODnegative)
All experiments were carried out in triplicate.

[19] = tested on: PK15 cells; assay: Cytotoxicity, WST-1 cell viability; conditions: 24 h, 37 °C, repeated three times
Experimental: as §4, §5, §6

[20] = tested on: field isolates from milk with high SCCs; conditions: all field isolates except A. hydrophila; range stated for the three peptides
Experimental: The minimum inhibitory concentration (MIC) was determined by following the manufacturer’s protocol and Clinical and Laboratory Standards Institute (CLSI) guidelines (2018) using a colourimetric method specified by the Microbial Viability Assay Kit-WST (Dojindo, Kumamoto, Japan). Four colonies of each bacterium were inoculated into 5 mL of LB medium and incubated at 37 °C for 4–6 h. The cells were then washed twice with sterile saline (0.9% NaCl) and seeded into a single well of a 96-well plate at a density of 1.5 × 10^5 cells/well, adjusting by McFarland standard 0.5. Subsequently, 180 µL/well of fresh MH broth (BD Bioscience) was added to the plate. Ampicillin, chloramphenicol, and gentamicin sulfate were used as controls for antimicrobial activity.
Different concentrations of each peptide and reference antibiotics (up to 40 µg/mL) were serially diluted in 10 µL of MH broth and added to each well. The plate was incubated at 37 °C for 6 h, using BHI broth to culture slow-growing fastidious strains, including E. faecalis, A. hydrophila, C. simulans, G. halophytocola, and streptococci. Cation-adjusted Mueller Hinton II broth (CAMHB) was employed to cultivate P. aeruginosa. Afterwards, 10 µL of the colouring reagent was added, and cells were incubated at 37 °C for 2 h. UV absorbance was measured for each well at 450 nm using a microplate spectrophotometer (xMark spectrophotometer; Bio-Rad, Hercules, CA, USA). The MIC values were determined when the absorbance difference between treatments and blanks (media and colouring reagent only) decreased to < 0.05. Experiments were conducted in triplicate.

[21] = tested on: eight standard bacterial strains; format: cell-based; conditions: all eight standard strains; range stated for the three peptides
Experimental: as §3

[22] = tested on: E. coli (ATCC 25922); format: in vitro ADME, Escherichia coli
Experimental: The MICs against E. coli (ATCC 25922) for cc-CATH3, ML-CATH, and PD-CATH in 150 mM NaCl and different pH (pH 5, 6, and 7) that were adjusted using acetic acid (Sigma Aldrich) were determined as described above. For serum stability assay, each AMP at four different concentrations was dissolved in 50% (v/v) FBS (Hyclone™) and incubated at 37 °C for 0, 60, and 120 min, respectively. As described in a previous study, ΔHg-CATH was used as a control for serum sensitivity. The antimicrobial activity of cc-CATH3, ML-CATH, and PD-CATH against E. coli was assessed for each condition as above. All experiments were conducted in triplicate.
Figure 2 Changes in the antibacterial activity of cc-CATH3, ML-CATH, and PD-CATH after incubation with naïve serum. cc-CATH3, ML-CATH, and PD-CATH peptides were incubated in 50% (v/v) FBS each for 0, 60, and 120 min before applying to antimicrobial activity assay against E. coli (ATCC 25922). The antimicrobial activity was determined by measuring bacterial growth at OD 450 nm. The X and Y axes indicate peptide concentration and absorbance at 450 nm, respectively. Samples containing 50% FBS in the absence of the peptides indicate a control for bacterial growth without AMP treatments. The antimicrobial activity of cc-CATH3 (A), ML-CATH (B), and PD-CATH (C) after the treatment of FBS-incubated AMPs was shown.

[23] = tested on: all bacterial strains in the panel and field isolates from milk; format: cell-based; conditions: against all bacterial strains in the panel and field isolates from milk
Experimental: The standard bacterial strains used for antimicrobial activity assays include Staphylococcus aureus ATCC (American Type Culture Collection, Manassas, VA, USA) 6538, Bacillus cereus ATCC 10876, Enterococcus faecalis ATCC 29212, Streptococcus agalactiae ATCC 27956, Streptococcus dysgalactiae ATCC 27957, Streptococcus equi subsp. zooepidemicus ATCC 43079, Escherichia coli ATCC 25922, and Pseudomonas aeruginosa ATCC 27853. Most bacterial strains were cultured in LB medium except for E. faecalis and streptococci, which were cultivated in brain heart infusion (BHI) broth (BD Bioscience).
as §1, §2

[24] = field isolate from milk, WST colourimetric, 37 °C 6 h, triplicate
[25] = value in brackets, Additional file 6, field isolate

In the case of `CNC(C)C1CCC(N)C(OC2C(N)CC(N)C(OC3OCC(C)(O)C(NC)C3O)C2O)O1` (centres unmarked) [Gentamicin, reference compound], the MIC [1, 24] was 2 µg/mL, the MIC [1, 25] was 4.2 nM and the MIC ([2]; Glutamicibacter halophytocola, field isolate from milk, BHI broth, WST colourimetric, 37 °C 6 h, triplicate, read-out: Minimal inhibitory concentration, Glutamicibacter halophytocola) was 3 µg/mL (≈ 6.28 µM). The MIC ([3]; Staphylococcus epidermidis, field isolate from milk, WST colourimetric, 37 °C 6 h, triplicate, read-out: Minimal inhibitory concentration, Staphylococcus epidermidis) was 4 µg/mL (≈ 8.38 µM), the MIC [4] was 4 µg/mL (≈ 8.38 µM) and the MIC ([5]; Corynebacterium simulans, field isolate from milk, BHI broth, WST colourimetric, 37 °C 6 h, triplicate, read-out: Minimal inhibitory concentration, Corynebacterium simulans) was 10 µg/mL (≈ 20.9 µM). For the same compound, the MIC ([6]; Streptococcus uberis, field isolate from milk, BHI broth, WST colourimetric, 37 °C 6 h, triplicate, read-out: Minimal inhibitory concentration, Streptococcus uberis) was 60 µg/mL (≈ 126 µM), the MIC [7, 24] was 1 µg/mL and the MIC [7, 25] was 2.1 nM. For the same compound, the MIC [8, 24] was 10 µg/mL, the MIC [8, 25] was 20.9 nM and the MIC ([9]; Staphylococcus aureus, ATCC6538, ATCC 6538, MH broth, WST colourimetric, 37 °C 6 h, triplicate, read-out: Minimal inhibitory concentration, Staphylococcus aureus) was 1 µg/mL (≈ 2.09 µM). For the same compound, the MIC ([10]; Bacillus cereus, ATCC10876, ATCC 10876, MH broth, WST colourimetric, 37 °C 6 h, triplicate, read-out: Minimal inhibitory concentration, Bacillus cereus) was 1 µg/mL (≈ 2.09 µM), the MIC ([11]; Streptococcus agalactiae, ATCC27956, ATCC 27956, BHI broth, WST colourimetric, 37 °C 6 h, triplicate, read-out: Minimal inhibitory concentration, Streptococcus agalactiae) was 75 µg/mL (≈ 157 µM) and the MIC [12] was 1 µg/mL. It also gave an MIC ([13]; Streptococcus equi, ATCC43079, ATCC 43079, BHI broth, WST colourimetric, 37 °C 6 h, triplicate, read-out: Minimal inhibitory concentration, Streptococcus equi subsp. zooepidemicus) of 45 µg/mL (≈ 94.2 µM), an MIC ([14]; Pseudomonas aeruginosa, ATCC27853, ATCC 27853, CAMHB, WST colourimetric, 37 °C 6 h, triplicate, read-out: Minimal inhibitory concentration, Pseudomonas aeruginosa) of 1 µg/mL (≈ 2.09 µM) and an MIC ([15]; Enterococcus faecalis, ATCC29212, ATCC 29212, BHI broth, WST colourimetric, 37 °C 6 h, triplicate, read-out: Minimal inhibitory concentration, Enterococcus faecalis) of 90 µg/mL (≈ 188 µM). For the same compound, the MIC ([16]; Streptococcus dysgalactiae, ATCC27957, ATCC 27957, BHI broth, WST colourimetric, 37 °C 6 h, triplicate, read-out: Minimal inhibitory concentration, Streptococcus dysgalactiae) was 15 µg/mL (≈ 31.4 µM).

In the case of “ILGPALRIGGRIAGRIAGKLIGDAINRHRERNRQRRG [PD-CATH]”, the “Cell viability ± SD, HaCaT” value ([17]; 64 μg/mL peptide) was 100.2 ± 0.2%, the “Cell viability ± SD, HaCaT” value ([17]; 160 μg/mL peptide) was 11.4 ± 0.5% and the “Haemolytic activity against bovine erythrocytes” value (“Haemolytic activity” below) ([18]; 10 μg/mL, 2% (v/v) erythrocytes in PBS pH 7.4, 37 °C 1 h, mean ± SD) was 0.4 ± 0.2%. For the same compound, the “Haemolytic activity” value ([18]; 20 μg/mL, 2% erythrocytes in PBS pH 7.4, 37 °C 1 h) was 0.7 ± 0.4%, the “Haemolytic activity” value ([18]; 40 μg/mL, 2% erythrocytes in PBS pH 7.4, 37 °C 1 h) was 2.9 ± 0.2% and the “Haemolytic activity” value ([18]; 80 μg/mL, 2% erythrocytes in PBS pH 7.4, 37 °C 1 h) was 3.5 ± 0.2%. The “Minimal inhibitory concentration, Staphylococcus chromogenes” value ([1]; 6 h) was 4 (1.0) μg/mL, the “Minimal inhibitory concentration, Glutamicibacter halophytocola” value ([2]; 6 h) was 1 µg/mL and the “Minimal inhibitory concentration, Staphylococcus epidermidis” value ([3]; 6 h) was 3 (0.7) μg/mL. For the same compound, the “Minimal inhibitory concentration, Corynebacterium simulans” value ([5]; 6 h) was 1 µg/mL, the “Minimal inhibitory concentration, Streptococcus uberis” value ([6]; 6 h) was 5 (1.2) μg/mL and the “Minimal inhibitory concentration, Staphylococcus xylosus” value ([7]; 6 h) was 3 (0.7) μg/mL. For the same compound, the “Cell viability ± SD, PK15” value ([19]; 64 μg/mL peptide) was 43.6 ± 1.7%, the “Cell viability ± SD, PK15” value ([19]; 160 μg/mL peptide) was 7.4 ± 0.2% and the “MICs, range over field isolates” value [20] was 0.8 to 5 µg/mL. For the same compound, the “MICs, range over all bacterial species in the test panel” value [21] was 2 to 42 µg/mL, the “Minimal inhibitory concentration, Staphylococcus aureus” value ([9]; ATCC 6538, 6 h) was 3 (0.7) μg/mL and the “Minimal inhibitory concentration, Bacillus cereus” value ([10]; ATCC 10876, 6 h) was 6 (1.5) μg/mL. For the same compound, the “Minimal inhibitory concentration, Streptococcus agalactiae” value ([11]; ATCC 27956, 6 h) was 8 (2.0) μg/mL, the “Minimal inhibitory concentration, Streptococcus equi subsp. zooepidemicus” value ([13]; ATCC 43079, 6 h) was 17 (4.2) μg/mL and the “Minimal inhibitory concentration, Pseudomonas aeruginosa” value ([14]; ATCC 27853, 6 h) was 42 (10.3) μg/mL. The “Minimal inhibitory concentration, Enterococcus faecalis” value ([15]; ATCC 29212, 6 h) was 6 (1.5) μg/mL, the “Minimal inhibitory concentration, Streptococcus dysgalactiae” value ([16]; ATCC 27957, 6 h) was 18 (4.4) μg/mL and the “antibacterial activity after incubation with serum” value [22] was “remained unaffected under all the tested conditions”. For the same compound, the “minimum inhibitory concentration, range over strains” value [23] was 200 to 10300 nM.

— article PMC11566078, “Bactericidal activities and biochemical features of 16 antimicrobial peptides against bovine-mastitis causative pathogens” (Veterinary Research, 2024)
